Data set [1] deals with T1, SIRT1 (Homo sapiens, UniProt Q96EB6).
T1 construct: purchased BPS Biosciences
T1 sequence (Q96EB6 1-747): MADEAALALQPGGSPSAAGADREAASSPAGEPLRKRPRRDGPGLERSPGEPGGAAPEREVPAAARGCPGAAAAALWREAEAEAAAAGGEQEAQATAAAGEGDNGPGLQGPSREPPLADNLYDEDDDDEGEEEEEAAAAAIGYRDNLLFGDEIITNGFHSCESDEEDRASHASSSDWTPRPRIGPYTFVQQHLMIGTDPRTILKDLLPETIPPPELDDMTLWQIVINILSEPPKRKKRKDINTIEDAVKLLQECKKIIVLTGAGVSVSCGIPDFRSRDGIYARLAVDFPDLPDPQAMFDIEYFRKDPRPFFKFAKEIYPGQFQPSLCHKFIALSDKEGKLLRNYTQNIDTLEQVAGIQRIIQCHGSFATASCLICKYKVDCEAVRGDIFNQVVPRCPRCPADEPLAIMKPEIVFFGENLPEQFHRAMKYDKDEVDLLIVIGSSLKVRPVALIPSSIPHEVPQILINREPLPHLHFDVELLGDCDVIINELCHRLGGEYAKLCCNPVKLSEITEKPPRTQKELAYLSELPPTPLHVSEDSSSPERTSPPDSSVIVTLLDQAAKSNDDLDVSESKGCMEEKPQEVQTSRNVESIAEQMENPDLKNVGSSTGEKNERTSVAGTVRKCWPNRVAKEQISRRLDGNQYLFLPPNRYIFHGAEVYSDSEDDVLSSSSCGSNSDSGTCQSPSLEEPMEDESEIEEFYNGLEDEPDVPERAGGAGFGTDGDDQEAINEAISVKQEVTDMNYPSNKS
The data set can be described thus: Individualized HDAC assay, SIRT1. It is filed as biochemical. The settings on record: purified enzyme, 5 to 0.02 μM. On the procedure: (§1) The activity of the curcuphenol analogues was assessed with purified HDAC enzymes from all classes I, II, and IV, as well as a select member of HDAC class III (SIRT1). HDACs 1-9 and SIRT1 were evaluated using HDAC Fluorogenic Assay Kits (BPS Biosciences). All assays were completed in black-sided clear-bottom 96 well plates (PerkinElmer), and all treatments were plated in triplicates. Treatment started at 5 μM and was two-fold diluted to a concentration 0.02 μM. The assays were measured using the Synergy HI hybrid reader (BioTek) and Gen5 software (BioTek), excitation was set to 360 nm and detection was measured at 450 nm with a gain of 100. Alternatively HDAC 10 and 11 (BPS Biosciences) were optimized for HDAC concentration using the HDAC-Glo™ I/II Assay and Screening System (Promega). Following optimization each HDAC was run following the Promega protocol in black-sided clear-bottomed 96 well plates in triplicates with same treatments listed above (PerkinElmer). Luminescence was read 30 minutes after HDAC-Glo™I/II reagent was added using the Synergy HI hybrid reader (BioTek) and Gen5 software (Bio-Tek). […] To calculate percent activity, the average of blank wells was subtracted from all treatment groups. The relative mean of activity of the HDAC being measured was determined and all wells that received treatment were divided this average, to give a percentage of activity.
(§2) To evaluate the effect of the compounds on specific HDACs, their activity was assessed with purified HDAC enzymes from all classes I, II, and IV, as well as a select member of HDAC class III (SIRT1). HDACs 1-9 and SIRT1 were evaluated using HDAC Fluorogenic Assay Kits (BPS Biosciences) following the manufacturer's recommendations. Compound treatment started at 5 μM and was two-fold diluted to a concentration 0.02 μM. Alternatively, HDAC 10 and 11 assays (BPS Biosciences) were optimized to be used with the HDAC-Glo™ I/II Assay and Screening System (Promega). The assays were measured using the Synergy HI hybrid reader (BioTek) and Gen5 software (Bio-Tek). […] To calculate the fold change in HDAC activity, the values from each treated well were divided by the relative mean of activity of the specific HDAC being measured.

Data set [2] is described as follows: Pharmacokinetics in mouse plasma. It is filed as in vivo. The settings on record: 5.2 mg/kg i.p.; for half-life in mouse plasma: Example 3; for half-life / concentration at 5 min: female; for half-life: C57BL/6, ip, mouse plasma, Example 1; for concentration at 5 min: C57BL/6, mouse, plasma, intraperitoneal, read-out: concentration in mouse plasma after 5 minutes. The source says:
To assess the pharmacokinetics (PK) of the curcuphenol analogues, a mass spectrometry assay was developed to measure the compounds in plasma. This assay was created by The Metabolomics Innovation Center (TMIC) at UVic-Genome BC Proteomics Centre located in Victoria, British Columbia. Eight samples were sent to TMIC for PK design for identification of P02-113 and P03-97-1 in mouse plasma. To collect plasma, mice were anesthetized using isoflurane and blood was collected by cardiac puncture. Plasma was isolated from blood in a potassium-EDTA coated Tube with K2E (BD Microtainer) and centrifugation at 10,000×g for 1 minute. Plasma was transferred to a cryovial and stored at −20° C. before being shipped on dry ice. TMIC used a chemical derivatization—UPLC-MMR/MS method to create a quantitative analysis tool for the compounds using dansyl chloride (DAN.CI) as the derivatizing reagent. 13C-labeled DAN.CI was used to produce stable isotope-labeled internal standards (ISs). All tests were performed using an UPLC-4000 QTRAP system with ESI and (+) ion detection using C18 column and acetonitrile-water-formic acid as the mobile phase.
For the PK analysis of P02-113 and P03-97-1, mice were injected i.p. and anesthetized before blood was collected by cardiac puncture at five time points (5 min, 10 min, 30 min, 1 hour and 6 hour). […] Three female C57BL/6 mice, between the ages 6-8 weeks, were used for each compound for each time point, giving a total […]. All mice were injected at the highest maximum tolerated dose (5.2 mg/kg) and plasma was prepared and stored as previously described above.
Pharmacokinetic study. […]. Three mice were used for each time point, with a total of […]. Time points were strategically chosen based on the similar structure of the compounds to TSA, an HDACi, which is known to augment TAP and MHC-I expression in metastatic tumours and to be metabolized at a high rate. The chosen time points were 5 minutes, 10 minutes, 1 hour and 6 hours.

For data set [3], the target named is T2, HDAC4 (Homo sapiens, UniProt P56524).
T2 construct: purchased BPS Biosciences
T2 sequence (P56524 whole entry): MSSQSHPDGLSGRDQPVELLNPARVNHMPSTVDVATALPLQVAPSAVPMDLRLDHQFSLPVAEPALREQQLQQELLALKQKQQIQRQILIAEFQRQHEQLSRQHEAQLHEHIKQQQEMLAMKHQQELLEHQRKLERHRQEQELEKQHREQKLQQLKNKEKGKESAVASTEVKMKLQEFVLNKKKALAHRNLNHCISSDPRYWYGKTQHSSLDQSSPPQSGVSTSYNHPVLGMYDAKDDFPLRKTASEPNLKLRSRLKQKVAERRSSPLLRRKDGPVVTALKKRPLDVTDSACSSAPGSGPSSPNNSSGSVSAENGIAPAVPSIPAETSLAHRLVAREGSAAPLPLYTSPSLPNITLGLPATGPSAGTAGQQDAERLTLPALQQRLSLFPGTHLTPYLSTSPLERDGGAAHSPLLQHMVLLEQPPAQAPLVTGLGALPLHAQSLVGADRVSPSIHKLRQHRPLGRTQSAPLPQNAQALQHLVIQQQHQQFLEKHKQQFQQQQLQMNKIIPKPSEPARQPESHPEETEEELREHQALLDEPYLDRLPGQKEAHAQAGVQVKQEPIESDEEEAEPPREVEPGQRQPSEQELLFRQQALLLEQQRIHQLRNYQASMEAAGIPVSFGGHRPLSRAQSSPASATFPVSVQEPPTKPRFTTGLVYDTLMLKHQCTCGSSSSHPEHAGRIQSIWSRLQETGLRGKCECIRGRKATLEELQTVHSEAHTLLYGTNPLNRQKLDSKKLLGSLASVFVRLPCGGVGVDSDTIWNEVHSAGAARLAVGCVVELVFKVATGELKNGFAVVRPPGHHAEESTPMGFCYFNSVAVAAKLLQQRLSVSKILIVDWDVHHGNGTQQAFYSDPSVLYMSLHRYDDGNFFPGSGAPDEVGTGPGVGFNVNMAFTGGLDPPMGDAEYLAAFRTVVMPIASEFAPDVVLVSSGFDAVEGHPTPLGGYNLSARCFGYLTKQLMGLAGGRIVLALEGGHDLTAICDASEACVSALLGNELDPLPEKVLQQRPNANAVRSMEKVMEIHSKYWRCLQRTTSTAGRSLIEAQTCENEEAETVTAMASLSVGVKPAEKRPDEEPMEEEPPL
The data set can be described thus: Individualized HDAC assay, HDAC4. It is filed as biochemical. The settings on record: purified enzyme, 5 to 0.02 μM. On the procedure: as §1
as §2, with “Alternatively, HDAC 10 and 11 assays (BPS Biosciences) were optimized to be used with the HDAC-Glo™ I/II Assay and Screening System (Promega).” left out

Entries after “also recorded” stand apart in the source; their conditions may differ. A value given as a limit tells only on which side of the number the result lay.

The record followed here is patent publication US20220105051A1, “COMPOUNDS FOR INCREASING MHC-I EXPRESSION AND MODULATING HISTONE DEACETYLASE ACTIVITY” (Cava Healthcare Inc., priority 2019, published 2022).

One may read the half-life as how long it takes for the measured level to halve. Read a low half-life as rapid decline.

Regarding `CC(C)=CCCCc1ccc(C)cc1O` [P02-113], in data set [1], the SIRT1 activity entry is listed as “did not demonstrate a change in activity; also recorded: no effect was observed; also recorded: no change in activity”. Besides, in data set [2], the “level in mouse plasma at the 6 hour time point” value is given as “undetectable levels”, the “time at which plasma concentration was half of the 5 minute concentration” value stood at 10 min, the “half-life in mouse plasma” value is listed as “roughly one” and the half-life is under 5 min. The concentration at 5 min in data set [2] is 0.4 ng/mL. Also, the HDAC4 activity result in data set [3] is on record as “no change in activity; also recorded: did not affect the activity; also recorded: unaffected”.

As for `COc1ccc(C(C)CCC=C(C)C)c(O)c1` (centres unmarked) [P03-97-1], in data set [1], the SIRT1 activity result is given as “did not demonstrate a change in activity”. Besides, the SIRT1 activity entry in data set [1] (listed as P03-7-1) is “no change in activity”. Further, the SIRT1 activity result in data set [1] (listed as PO-3-97-1) is on record as “no effect was observed”. In data set [2], the “level in mouse plasma at the 6 hour time point” value is on record as “undetectable levels”, the “time at which plasma concentration was half of the 5 minute concentration” value is reported as “around 20 minutes”, the “half-life in mouse plasma” value is listed as “roughly one” and the half-life is 15 min. Also, the concentration at 5 min in data set [2] turned out to be 30 ng/mL. Moreover, in data set [3], the HDAC4 activity entry is “no change in activity; also recorded: unaffected”. The HDAC4 activity result in data set [3] (listed as PO-3-97-1) is recorded as “did not affect the activity”.
